{
  "source": "patent US20050255076A1",
  "about": "“Therapeutic cream for dermatitis” (priority 2004, published 2005)",
  "origin": "cited, not measured here",
  "conditions": "in alcohol and in water",
  "data": [
    {"smiles": "C[S+](C)[O-]", "note": "[Dimethyl sulfoxide]", "values": [
      {"measurement": "Properties: solubility", "value": "Soluble in alcohol and water"}
    ]}
  ]
}
